The target of one assay is T1, human COX-2 enzyme (Homo sapiens, UniProt P35354).
T1 construct: purchased Cayman Chemicals 701050
T1 sequence (P35354 18-604): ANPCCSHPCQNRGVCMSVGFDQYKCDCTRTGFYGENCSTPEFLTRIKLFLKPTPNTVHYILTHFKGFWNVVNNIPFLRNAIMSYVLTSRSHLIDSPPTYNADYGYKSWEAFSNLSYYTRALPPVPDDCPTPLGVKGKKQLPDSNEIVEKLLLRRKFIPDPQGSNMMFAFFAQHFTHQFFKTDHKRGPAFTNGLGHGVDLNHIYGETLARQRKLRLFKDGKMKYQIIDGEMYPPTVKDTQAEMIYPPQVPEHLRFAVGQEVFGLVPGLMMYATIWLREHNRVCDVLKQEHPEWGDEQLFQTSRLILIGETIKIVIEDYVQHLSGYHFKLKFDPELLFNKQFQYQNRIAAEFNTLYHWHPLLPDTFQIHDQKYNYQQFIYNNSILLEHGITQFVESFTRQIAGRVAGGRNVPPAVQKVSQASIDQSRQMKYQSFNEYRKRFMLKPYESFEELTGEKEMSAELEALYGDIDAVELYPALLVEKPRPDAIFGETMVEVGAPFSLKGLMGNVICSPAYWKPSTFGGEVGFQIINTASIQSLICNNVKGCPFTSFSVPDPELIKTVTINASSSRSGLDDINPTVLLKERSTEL
The experiment in a line: COX colourimetric inhibition screening assay, COX-2. To be noted: for IC50 / inhibition at 1000 µg/mL: synthesised peptide; for inhibition at 1000 µg/mL: 1 mg/mL. The format is biochemical. As for the experimental part:
The anti-pain and anti-inflammatory bioactivities of generated mesopelagic hydrolysates and permeates were assessed using a cyclooxygenase inhibition assay, targeting human COX-2 and ovine COX-1 enzymes, as described previously. […] They can influence pain and inflammation related to diseases like osteoarthritis and rheumatoid arthritis, musculoskeletal injury, migraines, and cancer. COX inhibitors are indicated for mild pain and are usually prescribed for short durations of time to patients.

Another assay addresses T2, ovine COX-1 enzyme (Ovis aries, UniProt P05979).
T2 construct: purchased Cayman Chemicals 701050
T2 sequence (P05979 25-600): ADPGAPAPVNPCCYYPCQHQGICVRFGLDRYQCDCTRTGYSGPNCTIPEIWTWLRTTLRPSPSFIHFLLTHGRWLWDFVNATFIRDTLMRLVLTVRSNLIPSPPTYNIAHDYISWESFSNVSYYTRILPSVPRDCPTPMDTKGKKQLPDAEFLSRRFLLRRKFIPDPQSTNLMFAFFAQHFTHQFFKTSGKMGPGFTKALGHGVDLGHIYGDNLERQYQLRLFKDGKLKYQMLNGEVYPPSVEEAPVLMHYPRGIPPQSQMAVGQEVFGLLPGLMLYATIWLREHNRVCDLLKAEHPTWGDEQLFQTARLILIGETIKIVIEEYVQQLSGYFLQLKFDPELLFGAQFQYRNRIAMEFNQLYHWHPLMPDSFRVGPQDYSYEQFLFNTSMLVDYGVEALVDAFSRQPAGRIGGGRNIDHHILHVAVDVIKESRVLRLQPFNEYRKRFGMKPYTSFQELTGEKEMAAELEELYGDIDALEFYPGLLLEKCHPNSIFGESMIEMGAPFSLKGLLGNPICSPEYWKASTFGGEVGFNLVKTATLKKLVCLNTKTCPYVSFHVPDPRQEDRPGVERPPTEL
Briefly: COX colourimetric inhibition screening assay, COX-1. The assay is classed as biochemical. To be noted: synthesised peptide. How it is done:
The anti-pain and anti-inflammatory bioactivities of generated mesopelagic hydrolysates and permeates were assessed using a cyclooxygenase inhibition assay, targeting human COX-2 and ovine COX-1 enzymes, as described previously. COX (Prostaglandin H synthase) inhibition plays a positive role in the prevention of a variety of health conditions, and COX inhibitors have documented analgesic, anti-inflammatory, and antipyretic properties. They can influence pain and inflammation related to diseases like osteoarthritis and rheumatoid arthritis, musculoskeletal injury, migraines, and cancer. COX inhibitors are indicated for mild pain and are usually prescribed for short durations of time to patients. […] COX inhibition was calculated using the following Equation:% COX inhibition = (Corrected 100% initial activity − Corrected Inhibitor activity)/(Corrected 100% initial activity) × 100(1) where Corrected 100% initial activity was the absorbance value recorded for wells containing 150 µL 1× assay Buffer, 10 µL of either COX-1 or COX-2 enzyme and 10 µL of solvent (DMSO) minus the absorbance value recorded for the background well containing 160 µL of 1× Assay Buffer and 10 µL of solvent.

For another assay, the target named is T3, MAGL enzyme (Homo sapiens, UniProt Q99685).
T3 construct: purchased Cayman
T3 sequence (Q99685 1-303): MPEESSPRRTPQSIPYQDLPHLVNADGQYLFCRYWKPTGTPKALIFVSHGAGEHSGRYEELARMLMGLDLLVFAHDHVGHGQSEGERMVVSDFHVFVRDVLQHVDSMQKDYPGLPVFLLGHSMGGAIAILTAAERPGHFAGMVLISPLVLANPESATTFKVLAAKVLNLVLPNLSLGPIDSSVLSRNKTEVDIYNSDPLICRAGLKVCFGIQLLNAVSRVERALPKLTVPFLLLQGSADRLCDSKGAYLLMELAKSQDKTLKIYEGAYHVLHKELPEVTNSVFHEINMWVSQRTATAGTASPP
The experiment in a line: Monoacylglycerol lipase inhibition screening assay. The format is biochemical. The text has this:
Monoacylglycerol lipase (MAGL) is a serine hydrolase that catalyses the hydrolysis of monoglycerides into glycerol and fatty acids and links the endocannabinoid and eicosanoid systems through degradation of 2-arachidaoylglycerol to arachidonic acid, a precursor of prostaglandins and other inflammatory mediators. MAGL inhibitors can have anti-nociceptive, anxiolytic, anti-inflammatory and even anti-cancer benefits. The Cayman’s Monoacylglycerol lipase inhibition screening assay kit was used to measure the inhibition of MAGL by generated hydrolysates and the positive control JZL 195 inhibitor. The assay was performed in compliance with the manufacturer’s instructions. MAGL hydrolyses 4-Nitrophenylacetate, resulting in a yellow product, 4-nitrophenol, that has an absorbance between 405–412 nm. The […] of the yellow colour is indicative of MAGL inhibition. MAGL inhibition was calculated using the following Equation:% MAGL inhibition = (corrected 100% initial activity − corrected inhibitor activity)/(corrected 100% initial activity) × 100(2) where corrected 100% initial activity was the absorbance value recorded for wells containing 150 µL 1× assay Buffer, 10 µL of MAGL enzyme and 10 µL of solvent minus the absorbance value recorded for the background well containing 160 µL of 1× Assay Buffer and 10 µL of solvent (1.4% DMSO in water).

A further assay deals with COX-1. Set-up: method as in PMID 20188172. To be noted: known COX-1 selective inhibitors from Chinese herbs; cited from earlier work.
The subject of a further assay is COX-2. Also noted: method as in PMID 20188172. To be noted: known COX-2 selective inhibitors; read-out: COX2- IC50; cited from earlier work.
The test system of another assay is LOX-1 expression. Set-up: method as in PMID 30955604. To be noted: peptides from amaranth; cited from earlier work.
Assay [1] concerns nitric oxide (NO) production. Also noted: method as in doi:10.48022/mbl.2109.09005. To be noted: peptide from mollusc abalone; cited from earlier work.

Residues, ends and D or L forms follow the SMILES beside them.

The term IC50 denotes the concentration that inhibits the measured activity by half. The term inhibition denotes the drop in the measured response relative to a control, in per cent. Read a high inhibition as a response far below the control. `CC[C@H](C)[C@H](N)C(=O)N[C@@H](C)C(=O)NCC(=O)N[C@@H](Cc1ccccc1)C(=O)N[C@@H](CCC(=O)O)C(=O)N[C@H](C(=O)N[C@@H](Cc1ccccc1)C(=O)N[C@@H](CC(=O)O)C(=O)N[C@@H](Cc1ccccc1)C(=O)N[C@@H](CC(N)=O)C(=O)N[C@@H](CO)C(=O)N[C@@H](CC(C)C)C(=O)N[C@@H](CCC(=O)O)C(=O)N[C@@H](CCC(N)=O)C(=O)N[C@@H](CC(C)C)C(=O)N[C@@H](CS)C(=O)O)[C@@H](C)CC` (H-IAGFEIFDFNSLEQLC-OH): the selectivity index on human COX-2 enzyme (COX-1 versus COX-2 IC50 of synthesised peptide) is listed as 0.52. The figures for the half-maximal inhibitory concentration (IC50) on human COX-2 enzyme and at ovine COX-1 enzyme were 366 µM and 103 µM, respectively. Moreover, the inhibition at 1000 µg/mL at human COX-2 enzyme was found to be 47.5%; against ovine COX-1 enzyme (1 mg/mL), 53.3%.

`CC[C@H](C)[C@H](NC(=O)[C@H](CC(C)C)NC(=O)[C@H](C)NC(=O)[C@H](CCC(=O)O)NC(=O)[C@@H]1CCCN1C(=O)[C@H](CC(C)C)NC(=O)CNC(=O)[C@H](CC(C)C)NC(=O)[C@H](C)NC(=O)[C@H](C)NC(=O)[C@@H](NC(=O)[C@H](CC(C)C)NC(=O)[C@H](Cc1ccccc1)NC(=O)[C@@H](NC(=O)[C@H](CS)NC(=O)[C@@H](NC(=O)[C@@H](NC(=O)[C@H](CCC(=O)O)NC(=O)CNC(=O)[C@@H](NC(=O)[C@@H](N)CC(N)=O)C(C)C)C(C)C)C(C)C)[C@@H](C)CC)[C@@H](C)O)C(=O)O` (H-NVGEVVCIFLTAALGLPEALI-OH) showed an IC50 on MAGL enzyme (synthesised peptide) of 6.35 µM. The compound also displayed an inhibition at 500 µg/mL against MAGL enzyme (synthesised peptide, 0.5 mg/mL) of 53%.

In the case of `CSCC[C@H](NC(=O)[C@H](Cc1ccccc1)NC(=O)[C@H](CCC(N)=O)NC(=O)[C@H](Cc1ccc(O)cc1)NC(=O)[C@H](C)NC(=O)[C@H](CC(N)=O)NC(=O)[C@H](CC(=O)O)NC(=O)[C@@H](N)CO)C(=O)N[C@@H](CC(C)C)C(=O)N[C@H](C(=O)O)[C@@H](C)O` (H-SDNAYQFMLT-OH), at 500 µg/mL the inhibition on ovine COX-1 enzyme (0.5 mg/mL) was 53.7%.

`CC(=O)O[C@@H]1CC[C@@]2(C)[C@@H](CC[C@]3(C)[C@@H]2C(=O)C=C2[C@@H]4[C@@H](C)[C@H](C)CC[C@]4(C)CC[C@]23C)[C@@]1(C)C(=O)O` [Acetyl-11-keto-β-boswellic acid]: in the assay on COX-1, the IC50 is about 10 µM.

On to `O=C(Oc1ccc([N+](=O)[O-])cc1)N1CCN(Cc2cccc(Oc3ccccc3)c2)CC1` [JZL 195, reference compound], for which, at MAGL enzyme (positive control at 4.4 µM), the “% MAGL inhibition” value is given as 98.16%.

At human COX-2 enzyme, `CC(C)C[C@H](NC(=O)[C@H](C)NC(=O)[C@H](Cc1c[nH]c2ccccc12)NC(=O)[C@@H]1CCCN1C(=O)[C@H](CCCNC(=N)N)NC(=O)[C@H](Cc1c[nH]cn1)NC(=O)[C@H](CC(C)C)NC(=O)[C@@H]1CCCN1C(=O)[C@H](CS)NC(=O)[C@@H](N)CCC(N)=O)C(=O)O` [QCPLHRPWAL] (H-QCPLHRPWAL-OH) yielded a 50% inhibitory concentration (IC50) of 221 µM and an inhibition at 1000 µg/mL of 53.8%. The “% COX-1 inhibition” value on ovine COX-1 enzyme (concentration not printed with the value) is 82.90% (+/−0.54).

For `CCC/C=C1\OC(=O)C2=C1CC[C@H]1[C@H]3C=C4C(=O)O/C(=C\CCC)[C@@]4(CC3)[C@@H]21` [Senkyunolide O], in the assay with COX-2, the half-inhibitory concentration (IC50) was 5 µM.

`CC(=O)O[C@@H]1CC[C@@]2(C)[C@@H](CC[C@]3(C)[C@@H]2CC=C2[C@@H]4CC(C)(C)CC[C@]4(C)CC[C@]23C)[C@@]1(C)C(=O)O` [acetyl-α-boswellic acid]: in the assay on COX-1, the IC50 is about 10 µM.

For the compound `CC(=O)O[C@@H]1CC[C@@]2(C)[C@@H](CC[C@]3(C)[C@@H]2CC=C2[C@@H]4[C@@H](C)[C@H](C)CC[C@]4(C)CC[C@]23C)[C@@]1(C)C(=O)O` [acetyl-β-boswellic acid], the concentration for half-maximal inhibition (IC50) in the assay on COX-1 was about 10 µM.

As to `C[C@H]1COC2=C1C(=O)C(=O)c1c2ccc2c1CCCC2(C)C` [cryptotanshinone], the half-maximal inhibitory concentration (IC50) in the assay with COX-2 was 22 µM.

For the compound `C[C@H]1[C@H](C)CC[C@]2(C)CC[C@]3(C)C(=CC[C@@H]4[C@@]5(C)CC[C@@H](O)[C@](C)(C(=O)O)[C@@H]5CC[C@]43C)[C@H]12` [β-boswellic acid], the IC50 with COX-1 was about 10 µM.

For “FDAFLPM [peptide from Irish M. muelleri Alcalase hydrolysate (Code 23), chemically synthesised]”, the “% COX-1 inhibition” value with ovine COX-1 enzyme (0.5 mg/mL) came to 34.49%.

Turning to “HGSEPFGPR [literature anti-inflammatory peptide from amaranth]”, the “effect on LOX-1 expression” value in the assay with LOX-1 expression was “reduce LOX-1 expression”.

“PFNEGTFAAS [literature peptide derived from mollusc abalone]”: in assay [1], the “NO IC50” value was 54.07 mg/L.

With “RPRYPWRYT [literature anti-inflammatory peptide from amaranth]”, the “effect on LOX-1 expression” value in the assay on LOX-1 expression is “reduce LOX-1 expression”.

These data come from article PMC11278298, “Generation, Characterisation and Identification of Bioactive Peptides from Mesopelagic Fish Protein Hydrolysates Using In Silico and In Vitro Approaches” (Marine Drugs, 2024).
